Assay [1] addresses unphosphorylated PDGFRβ kinase (uPDGFRβ, Seq. ID No. 3) (Homo sapiens (Human), UniProt P09619). Put plainly: Unphosphorylated PDGFRβ kinase assay (coupled pyruvate kinase/lactate dehydrogenase). In kind it is biochemical. Particulars: enzymatic assay, ATP 500 μM. In outline:
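Construct residues 557-1106, unphosphorylated, 15.7 nM, with poly E4Y 2.5 mg/mL and 500 μM ATP, Tris pH 7.5, 1% DMSO, 30 °C. ADP coupled to NADH oxidation via PK/LDH, A340 followed 4 h; rate from 1.5-2.5 h versus no-compound control, IC50 from percent-inhibition series.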

For another assay, the system named is osteoclast precursors. Put plainly: Osteoclast tartrate-resistant acid phosphatase assay. In kind it is cell-based. The following applies: Osteoclast, 7-14 days, RANKL and M-CSF.
A further assay relates to M-NFS-60 cells. Kind of assay: M-NFS-60 cell proliferation assay (resazurin). In kind it is cell-based. The following applies: 67 h incubation. The method, boiled down: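 Cells kept in medium containing 20 ng/mL mouse recombinant M-CSF. Fluorescence was read at ex 540/em 600 nm, and IC50 was fitted from percent inhibition across a range of inhibitor concentrations.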
(Resazurin is reduced to fluorescent resorufin, in cell work by metabolically active cells.)

Assay [2] addresses c-FMS kinase in THP-1 cells (Homo sapiens (Human), UniProt P07333). Kind of assay: Phospho-FMS ELISA assay in THP-1 cells. In kind it is cell-based. How it is done: THP-1 cells (catalog #TIB-202) were obtained from the ATCC. Briefly, cells were grown in RPMI 1640 supplemented with 10% characterized fetal bovine serum, 1% sodium pyruvate, 1% Penicillin-Streptomycin-Glutamine (PSG) and 55 uM 2-mercaptoethanol (Invitrogen, Carlsbad, Calif.) at 37 degrees Celsius, 5% CO2, 95% humidity. Cells were allowed to expand until reaching 70-95% confluency at which point they were subcultured or harvested for assay use.
A serial dilution of test compound was diluted 1:100 in assay medium (RPMI 1640 supplemented with 10% characterized fetal bovine serum) in a 96 well black clear bottom plate (Corning, Corning, N.Y.). In a separate 96 well black clear bottom plate, one hundred and fifty thousand THP-1 cells were added per well in 100 μL in assay medium. Fifty microliters of diluted compound was then added to the cells. Plates were incubated for 4 hours at 37 degrees Celsius, 5% CO2, 95% humidity. At the end of the incubation period, cells were stimulated with 50 μL of a 100 nM solution of recombinant human M-CSF (catalog #216-MC, R & D Systems, Minneapolis, Minn.) in assay medium and the plate was incubated for 5 minutes at 37 degrees Celsius, 5% CO2, 95% humidity. Lysates were prepared and used to perform the phospho-FMS ELISA as described by the manufacturer (catalog #DYC3268, R & D Systems, Minneapolis, Minn.). GraphPad Prism was used to calculate IC50 values obtained from data generated from the ELISA assay.
Background: In an ELISA, binding on a coated surface is turned into a signal by an enzyme label.

Setting [3] is: 4 h compound, M-CSF stimulation 5 min, read-out: pFMS inhibition in THP-1 cells.

Where two headings read alike, the source gives them in different places.

Chain of unphosphorylated PDGFRβ kinase (uPDGFRβ, Seq. ID No. 3) (P09619 557-1106): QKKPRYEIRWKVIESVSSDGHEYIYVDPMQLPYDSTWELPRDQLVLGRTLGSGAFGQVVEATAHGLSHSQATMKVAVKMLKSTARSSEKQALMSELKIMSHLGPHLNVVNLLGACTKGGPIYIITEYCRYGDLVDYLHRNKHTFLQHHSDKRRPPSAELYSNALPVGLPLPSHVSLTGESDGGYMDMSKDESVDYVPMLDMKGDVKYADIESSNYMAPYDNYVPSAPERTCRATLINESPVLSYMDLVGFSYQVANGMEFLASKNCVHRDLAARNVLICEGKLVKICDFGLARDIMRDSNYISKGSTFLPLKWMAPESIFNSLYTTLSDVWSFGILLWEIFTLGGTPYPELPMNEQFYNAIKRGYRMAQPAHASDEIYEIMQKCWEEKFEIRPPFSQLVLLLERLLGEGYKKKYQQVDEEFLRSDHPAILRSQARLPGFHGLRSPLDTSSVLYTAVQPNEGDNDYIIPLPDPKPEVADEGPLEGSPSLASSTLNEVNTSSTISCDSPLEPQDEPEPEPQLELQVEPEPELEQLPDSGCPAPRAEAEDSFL
Chain of c-FMS kinase in THP-1 cells (P07333 20-972): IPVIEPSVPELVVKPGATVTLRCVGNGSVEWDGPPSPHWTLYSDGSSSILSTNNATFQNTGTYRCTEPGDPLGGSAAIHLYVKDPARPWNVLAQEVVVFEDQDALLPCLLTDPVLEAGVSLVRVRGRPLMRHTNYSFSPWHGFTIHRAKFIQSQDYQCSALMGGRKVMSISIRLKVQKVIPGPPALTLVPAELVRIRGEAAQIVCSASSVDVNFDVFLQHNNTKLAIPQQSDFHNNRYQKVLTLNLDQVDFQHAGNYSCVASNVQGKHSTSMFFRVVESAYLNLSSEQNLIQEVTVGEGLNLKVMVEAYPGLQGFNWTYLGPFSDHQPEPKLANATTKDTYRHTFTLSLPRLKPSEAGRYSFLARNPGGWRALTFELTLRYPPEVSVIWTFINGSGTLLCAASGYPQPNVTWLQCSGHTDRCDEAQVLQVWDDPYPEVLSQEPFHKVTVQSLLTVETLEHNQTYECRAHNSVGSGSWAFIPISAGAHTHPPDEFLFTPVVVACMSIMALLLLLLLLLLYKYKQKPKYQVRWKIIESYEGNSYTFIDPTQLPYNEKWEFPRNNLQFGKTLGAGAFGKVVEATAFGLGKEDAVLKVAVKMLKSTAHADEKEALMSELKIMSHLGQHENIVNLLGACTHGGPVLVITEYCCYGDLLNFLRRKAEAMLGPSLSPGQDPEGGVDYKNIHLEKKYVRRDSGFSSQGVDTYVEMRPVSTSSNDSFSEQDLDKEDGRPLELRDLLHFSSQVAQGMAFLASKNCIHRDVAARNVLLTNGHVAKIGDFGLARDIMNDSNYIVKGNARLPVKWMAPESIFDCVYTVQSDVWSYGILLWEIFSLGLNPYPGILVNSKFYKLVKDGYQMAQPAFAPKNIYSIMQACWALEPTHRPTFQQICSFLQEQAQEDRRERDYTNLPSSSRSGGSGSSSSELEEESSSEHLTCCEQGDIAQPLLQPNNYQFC

On to `Cc1nc(NC(=O)N2CCN(C(C)(C)C)C2=O)ccc1Oc1ccnc(-c2cnn(C)c2)c1` [Example 33, 3-(tert-butyl)-N-(6-methyl-5-((2-(1-methyl-1H-pyrazol-4-yl)pyridin-4-yl)oxy)pyridin-2-yl)-2-oxoimidazolidine-1-carboxamide], for which the IC50 is 100 to 1000 nM in assay [1], 10 to 100 nM with osteoclast precursors, 10 to 100 nM with M-NFS-60 cells and under 10 nM in assay [2] (setting [3]).

For `Cn1cc(-c2cc(Oc3ccc(NC(=O)N4CCN(C(C)(C)C)C4=O)nc3)ccn2)cn1` [Example 34, 3-(tert-butyl)-N-(5-((2-(1-methyl-1H-pyrazol-4-yl)pyridin-4-yl)oxy)pyridin-2-yl)-2-oxoimidazolidine-1-carboxamide], the IC50 is 10 to 100 nM in assay [1], 10 to 100 nM in the assay with osteoclast precursors, 10 to 100 nM with M-NFS-60 cells and under 10 nM in assay [2] (setting [3]).

Consider `Cc1nc(NC(=O)N2CCN(C(C)C)C2=O)ccc1Oc1ccnc(-c2cnn(C)c2)c1` [Example 35, 3-isopropyl-N-(6-methyl-5-((2-(1-methyl-1H-pyrazol-4-yl)pyridin-4-yl)oxy)pyridin-2-yl)-2-oxoimidazolidine-1-carboxamide], for which the IC50 in assay [1] was 100 to 1000 nM; with osteoclast precursors, under 10 nM; with M-NFS-60 cells, 10 to 100 nM; in assay [2] (setting [3]), under 10 nM.

For `CC(C)N1CCN(C(=O)Nc2ccc(Oc3ccnc(-c4cnn(C)c4)c3)cn2)C1=O` [Example 36, 3-isopropyl-N-(5-((2-(1-methyl-1H-pyrazol-4-yl)pyridin-4-yl)oxy)pyridin-2-yl)-2-oxoimidazolidine-1-carboxamide], the IC50 in assay [1] was 100 to 1000 nM; with osteoclast precursors, under 10 nM; in the assay on M-NFS-60 cells it was under 10 nM; in assay [2] (setting [3]) it was under 10 nM.

For the compound `[2H]C([2H])([2H])n1cc(-c2cc(Oc3ccc(NC(=O)N4CCN(CCOC)C4=O)nc3C)ccn2)cn1` [Example 39, 3-(2-methoxyethyl)-N-(6-methyl-5-((2-(1-(trideuteromethyl)-1H-pyrazol-4-yl)pyridin-4-yl)oxy)pyridin-2-yl)-2-oxoimidazolidine-1-carboxamide], the IC50 in assay [1] was over 1000 nM; with osteoclast precursors, 10 to 100 nM; in the assay on M-NFS-60 cells it was 100 to 1000 nM; in assay [2] (setting [3]), 10 to 100 nM.

With `Cc1nc(NC(=O)N2CCN(C)C2=O)ccc1Oc1ccnc(-c2cnn(C)c2)c1` [Example 41, 3-methyl-N-(6-methyl-5-((2-(1-methyl-1H-pyrazol-4-yl)pyridin-4-yl)oxy)pyridin-2-yl)-2-oxoimidazolidine-1-carboxamide], the IC50 in assay [1] is over 1000 nM; with osteoclast precursors, 10 to 100 nM; with M-NFS-60 cells, 100 to 1000 nM; in assay [2], 10 to 100 nM.

As for `CCN1CCN(C(=O)Nc2ccc(Oc3ccnc(-c4cnn(C)c4)c3)c(C)n2)C1=O` [Example 42, 3-ethyl-N-(6-methyl-5-((2-(1-methyl-1H-pyrazol-4-yl)pyridin-4-yl)oxy)pyridin-2-yl)-2-oxoimidazolidine-1-carboxamide], the IC50 is over 1000 nM in assay [1], under 10 nM in the assay on osteoclast precursors, 10 to 100 nM in the assay with M-NFS-60 cells and 10 to 100 nM in assay [2] (setting [3]).

As for `Cc1nc(NC(=O)N2CCN(CC(F)(F)F)C2=O)ccc1Oc1ccnc(-c2cnn(C)c2)c1` [Example 43, N-(6-methyl-5-((2-(1-methyl-1H-pyrazol-4-yl)pyridin-4-yl)oxy)pyridin-2-yl)-2-oxo-3-(2,2,2-trifluoroethyl)imidazolidine-1-carboxamide], the IC50 is over 1000 nM in assay [1], under 10 nM in the assay on osteoclast precursors, under 10 nM in the assay on M-NFS-60 cells and 10 to 100 nM in assay [2] (setting [3]).

Take `CCc1nc(NC(=O)N2CCN(C3CCOCC3)C2=O)ccc1Oc1ccnc(-c2cnn(C)c2)c1` [Example 49, N-(6-ethyl-5-((2-(1-methyl-1H-pyrazol-4-yl)pyridin-4-yl)oxy)pyridin-2-yl)-2-oxo-3-(tetrahydro-2H-pyran-4-yl)imidazolidine-1-carboxamide]: the IC50 is over 1000 nM in assay [1], 10 to 100 nM in the assay on osteoclast precursors, 100 to 1000 nM in the assay with M-NFS-60 cells and 100 to 1000 nM in assay [2] (setting [3]).

On to `Cc1ccc(-c2cc(Oc3ccc(NC(=O)N4CCN(C5CCOCC5)C4=O)nc3)ccn2)cn1` [Example 52, N-(5-((6′-methyl-[2,3′-bipyridin]-4-yl)oxy)pyridin-2-yl)-2-oxo-3-(tetrahydro-2H-pyran-4-yl)imidazolidine-1-carboxamide], for which the IC50 is 100 to 1000 nM in assay [1], 10 to 100 nM in the assay on osteoclast precursors, 10 to 100 nM in the assay on M-NFS-60 cells and 100 to 1000 nM in assay [2] (setting [3]).

In the case of `Cc1ccc(-c2cc(Oc3ccc(NC(=O)N4CCN(C5CCOCC5)C4=O)nc3C)ccn2)cn1` [Example 54, N-(6-methyl-5-((6′-methyl-[2,3′-bipyridin]-4-yl)oxy)pyridin-2-yl)-2-oxo-3-(tetrahydro-2H-pyran-4-yl)imidazolidine-1-carboxamide], the IC50 lay in the range of 100 to 1000 nM in assay [1], 10 to 100 nM in the assay with osteoclast precursors, 10 to 100 nM in the assay on M-NFS-60 cells and 100 to 1000 nM in assay [2] (setting [3]).

For `CCc1nc(NC(=O)N2CCN(CC(F)(F)F)C2=O)ccc1Oc1ccnc(-c2cnn(C)c2)c1` [Example 56, N-(6-ethyl-5-((2-(1-methyl-1H-pyrazol-4-yl)pyridin-4-yl)oxy)pyridin-2-yl)-2-oxo-3-(2,2,2-trifluoroethyl)imidazolidine-1-carboxamide], the IC50 in assay [1] is over 1000 nM; in the assay on osteoclast precursors, 100 to 1000 nM; in the assay with M-NFS-60 cells it was 10 to 100 nM; in assay [2] (setting [3]), 100 to 1000 nM.

`CCc1nc(NC(=O)N2CCN(C3CCCC3)C2=O)ccc1Oc1ccnc(-c2cnn(C)c2)c1` [Example 57, 3-cyclopentyl-N-(6-ethyl-5-((2-(1-methyl-1H-pyrazol-4-yl)pyridin-4-yl)oxy)pyridin-2-yl)-2-oxoimidazolidine-1-carboxamide]: the IC50 in assay [1] is over 1000 nM; in the assay with osteoclast precursors, 10 to 100 nM; in the assay with M-NFS-60 cells, under 10 nM; in assay [2] (setting [3]), 10 to 100 nM.

For `CCc1nc(NC(=O)N2CCN(C3CC3)C2=O)ccc1Oc1ccnc(-c2cnn(C)c2)c1` [Example 58, 3-cyclopropyl-N-(6-ethyl-5-((2-(1-methyl-1H-pyrazol-4-yl)pyridin-4-yl)oxy)pyridin-2-yl)-2-oxoimidazolidine-1-carboxamide], the IC50 in assay [1] was over 1000 nM; in the assay with osteoclast precursors, 10 to 100 nM; in the assay with M-NFS-60 cells it was 10 to 100 nM; in assay [2] (setting [3]), 10 to 100 nM.

On to `CCN1CCN(C(=O)Nc2ccc(Oc3ccnc(-c4ccc(C5CCN(C)CC5)cc4)c3)c(C)n2)C1=O` [Example 61, 3-ethyl-N-(6-methyl-5-((2-(4-(1-methylpiperidin-4-yl)phenyl)pyridin-4-yl)oxy)pyridin-2-yl)-2-oxoimidazolidine-1-carboxamide], for which the IC50 is over 1000 nM in assay [1], under 10 nM in the assay on osteoclast precursors, under 10 nM with M-NFS-60 cells and under 10 nM in assay [2] (setting [3]).

As for `Cc1cc(NC(=O)N2CCN(C)C2=O)ncc1Oc1ccnc(-c2cnn(C)c2)c1` [Example 85, 3-methyl-N-(4-methyl-5-((2-(1-methyl-1H-pyrazol-4-yl)pyridin-4-yl)oxy)pyridin-2-yl)-2-oxoimidazolidine-1-carboxamide], the IC50 in assay [1] is over 1000 nM; in the assay with osteoclast precursors, under 10 nM; in the assay on M-NFS-60 cells, 10 to 100 nM; in assay [2] (setting [3]), 10 to 100 nM.

In the case of `CCN1CCN(C(=O)Nc2cc(C)c(Oc3ccnc(-n4cnc(C)c4)c3)cn2)C1=O` [Example 88, 3-ethyl-N-(4-methyl-5-((2-(4-methyl-1H-imidazol-1-yl)pyridin-4-yl)oxy)pyridin-2-yl)-2-oxoimidazolidine-1-carboxamide], the IC50 in assay [1] was over 1000 nM; with osteoclast precursors, 10 to 100 nM; with M-NFS-60 cells, 10 to 100 nM; in assay [2] (setting [3]), 10 to 100 nM.

As for `CCN1CCN(C(=O)Nc2ccc(Oc3ccnc(-c4cnc(C)o4)c3)cn2)C1=O` [Example 117, 3-ethyl-N-(5-((2-(2-methyloxazol-5-yl)pyridin-4-yl)oxy)pyridin-2-yl)-2-oxoimidazolidine-1-carboxamide], the IC50 in assay [1] is over 1000 nM; in the assay with osteoclast precursors, 10 to 100 nM; in the assay on M-NFS-60 cells it was 100 to 1000 nM; in assay [2] (setting [3]), 10 to 100 nM.

As to `CCN1CCN(C(=O)Nc2ccc(Oc3ccnc(-c4ccnc(C)c4)c3)c(C)n2)C1=O` [Example 118, 3-ethyl-N-(6-methyl-5-((2′-methyl-[2,4′-bipyridin]-4-yl)oxy)pyridin-2-yl)-2-oxoimidazolidine-1-carboxamide], the IC50 in assay [1] was over 1000 nM; with osteoclast precursors, 10 to 100 nM; in the assay on M-NFS-60 cells it was 10 to 100 nM; in assay [2] (setting [3]), 10 to 100 nM.

Values taken from patent publication US9133183B2, “Imidazolidinones and analogs exhibiting anti-cancer and anti-proliferative activities” (Deciphera Pharmaceuticals, LLC, priority 2013, dated 2015).
